Activity calls are given as the source filed them. No cut-off for these calls is given here.
Assays:
[1] = Induction of Wnt/beta-catenin signaling pathway in rat MC3T3-E1 cells assessed as protection against H2O2-induced oxidative stress by measuring increase in onc mRNA expression at 0.5 to 2 mM pretreated with compound for 48 hrs followed by H2O2 treatment for 24 hrs by immunofluorescence staining method; type: cell-based
MC3T3-E1 [2] = assay: Increase in cell viability of […] cells at 1 mM after 48 hrs by MTT assay; type: functional, cell-based
[3] = (§1) Induction of Wnt/beta-catenin signaling pathway in […] cells assessed as protection against H2O2-induced oxidative stress by measuring OPG activation at 0.5 to 2 mM pretreated with compound for 48 hrs followed by H2O2 treatment for 24 hrs by Western blot analysis; type: cell-based
[4] = Induction of Wnt/beta-catenin signaling pathway in […] cells assessed as protection against H2O2-induced oxidative stress by measuring Runx2 activation at 0.5 to 2 mM pretreated with compound for 48 hrs followed by H2O2 treatment for 24 hrs by Western blot analysis; type: cell-based
[5] = Induction of Wnt/beta-catenin signaling pathway in […] cells assessed as protection against H2O2-induced oxidative stress by measuring increase in ALP activity at 0.5 to 2 mM pretreated with compound for 48 hrs followed by H2O2 treatment for 24 hrs; type: cell-based
[6] = Induction of Wnt/beta-catenin signaling pathway in […] cells assessed as protection against H2O2-induced oxidative stress by measuring increase in ALP activity at 2 mM pretreated with compound for 48 hrs followed by H2O2 treatment for 24 hrs; type: cell-based
[7] = Induction of Wnt/beta-catenin signaling pathway in […] cells assessed as protection against H2O2-induced oxidative stress by measuring increase in mineralization at 2 mM pretreated with compound for 48 hrs followed by H2O2 treatment for 24 hrs; type: cell-based
Rattus norvegicus [8] = assay: Protection against OVX-induced oxidative stress in osteoporosis rat model assessed as decrease in H2O2 level in serum at 220 mg/kg/day after 3 months by colorimetric assay; type: functional, organism-based
[9] = Induction of Wnt/beta-catenin signaling pathway in […] cells assessed as protection against H2O2-induced oxidative stress by measuring ALP activation at 0.5 to 2 mM pretreated with compound for 48 hrs followed by H2O2 treatment for 24 hrs by Western blot analysis; type: cell-based
[10] = Induction of Wnt/beta-catenin signaling pathway in […] cells assessed as protection against H2O2-induced cell death at 0.5 to 2 mM pretreated with compound for 48 hrs followed by H2O2 treatment for 24 hrs by MTT assay; type: cell-based
[11] = Induction of Wnt/beta-catenin signaling pathway in […] cells assessed as protection against H2O2-induced cell death at 2 mM pretreated with compound for 48 hrs followed by H2O2 treatment for 24 hrs by MTT assay; type: cell-based
MC3T3-E1 [12] = assay: Protection against H2O2-induced apoptosis in […] cells assessed as decrease in nuclear condensation pretreated with compound for 48 hrs followed by H2O2 treatment for 24 hrs by DAPI staining based confocal laser scanning microscopy; type: functional, cell-based
[13] = Induction of Wnt/beta-catenin signaling pathway in […] cells assessed as protection against H2O2-induced oxidative stress by measuring increase in mineralization at 0.5 to 2 mM pretreated with compound for 48 hrs followed by H2O2 treatment for 24 hrs; type: cell-based
Rattus norvegicus [14] = assay: Protection against OVX-induced oxidative stress in osteoporosis rat model assessed as […] level in serum at 220 mg/kg/day after 3 months by colorimetric assay; type: functional, organism-based
MC3T3-E1 [15] = assay: Protection against H2O2-induced apoptosis in rat MC3T3-E1 cells assessed as inhibition of caspase 3 mRNA level pretreated with compound for 48 hrs followed by H2O2 treatment for 24 hrs by quantitative real-time PCR method; type: functional, cell-based
[16] = Induction of Wnt/beta-catenin signaling pathway in […] cells assessed as protection against H2O2-induced oxidative stress by measuring increase in onc mRNA expression at 2 mM pretreated with compound for 48 hrs followed by H2O2 treatment for 24 hrs by immunofluorescence staining method; type: cell-based
[17] = as §1, with “decrease in phosphorylated beta-catenin expression” for “OPG activation”, “1.5” for “0.5 to 2”; type: cell-based
[18] = Induction of Wnt/beta-catenin signaling pathway in […] cells assessed as protection against H2O2-induced oxidative stress in presence of Wnt/beta-catenin signaling pathway inhibitor XAV-939; type: cell-based
Rattus norvegicus [19] = assay: Protection against OVX-induced osteoporosis in osteoporosis rat model assessed as increase in bone mineral density of femur at 220 mg/kg/day after 3 months by dual X-ray absorptiometry; type: functional, organism-based
MC3T3-E1 [20] = assay: Protection against H2O2-induced apoptosis in rat MC3T3-E1 cells assessed as decrease in nuclear fragmentation pretreated with compound for 48 hrs followed by H2O2 treatment for 24 hrs by DAPI staining based confocal laser scanning microscopy; type: functional, cell-based
Rattus norvegicus [21] = species on record: Rattus norvegicus; assay: Cytotoxicity against […] cells assessed as effect on cell number at 2 mM after 48 hrs by MTT assay; type: toxicity, cell-based; settings: mc3t3-e1, 48 h, 2000 µM
MC3T3-E1 [22] = assay: Protection against H2O2-induced apoptosis in rat MC3T3-E1 cells assessed as inhibition of caspase 3 activation using Ac-DEVD-pNA as substrate pretreated with compound for 48 hrs followed by H2O2 treatment for 24 hrs; type: functional, cell-based
[23] = as §1, with “decrease in phosphorylated beta-catenin expression” for “OPG activation”; type: cell-based
Rattus norvegicus [24] = species on record: Rattus norvegicus; assay: Cytotoxicity against […] cells assessed as effect on cell number at 1 mM after 48 hrs by MTT assay; type: toxicity, cell-based; settings: mc3t3-e1, 48 h, 1000 µM

Question: Which Activity [1] does the source give for O.O.O.O.O.O.O.O.O=P([O-])([O-])OCC1(O)O[C@H](COP(=O)([O-])O)[C@@H](O)[C@@H]1O.[Na+].[Na+].[Na+] (some centres undefined) [FOSFRUCTOSE TRISODIUM] here?
Answer: Active

Question: And the Activity (MC3T3-E1 [2])?
Answer: Active

Question: And the Activity [3]?
Answer: Active

Question: And the Activity [4]?
Answer: Active

Question: What about the Activity [5] of the same molecule?
Answer: Active

Question: And the Activity [6]?
Answer: Active

Question: What about the Activity [7] of the same molecule?
Answer: Active

Question: What about the Activity (Rattus norvegicus [8]) of the same molecule?
Answer: Active

Question: What about the Activity [9] of the same molecule?
Answer: Active

Question: And the Activity [10]?
Answer: Active

Question: What about the Activity [11] of the same molecule?
Answer: Active

Question: And the Activity (MC3T3-E1 [12])?
Answer: Active

Question: And the Activity [13]?
Answer: Active

Question: And the Activity (Rattus norvegicus [14])?
Answer: Active

Question: And the Activity (MC3T3-E1 [15])?
Answer: Active

Question: And the Activity [16]?
Answer: Active

Question: What about the Activity [17] of the same molecule?
Answer: Active

Question: What about the Activity [18] of the same molecule?
Answer: Active

Question: What about the Activity (Rattus norvegicus [19]) of the same molecule?
Answer: Active

Question: And the Activity (MC3T3-E1 [20])?
Answer: Active

Question: What about the Activity (Rattus norvegicus [21]) of the same molecule?
Answer: Non-Toxic

Question: And the Activity (MC3T3-E1 [22])?
Answer: Active

Question: What about the Activity [23] of the same molecule?
Answer: Active

Question: Which Activity (Rattus norvegicus [24]) does the source give for CC(=O)N[C@@H](CS)C(=O)O [ACETYLCYSTEINE] here?
Answer: Non-Toxic
